# Laboratory results reported in patent US12539335B2, “Tricyclic polypeptide conjugated drug and use thereof” (CONJUSTAR (ZHUHAI) BIOLOGICS CO., LTD., priority 2021, dated 2026).
# Where a name gives a salt, the structure may show the parent alone. Starred links: 1 amine or outer side, 2 acyl side, 3 side chain; linkers in the order of their positions; H or OH if unused. Positions of bridges follow the written chain, without caps; N, C: chain ends. Non-standard residues stand in square brackets, D forms with d. Residues, ends and D or L forms follow the SMILES beside them. Chains are numbered I, II in the order given. *: point of attachment. TATA = O=C(CC[*:1])N1CN(C(=O)CC[*:2])CN(C(=O)CC[*:3])C1; Dolaproine = CO[C@@H]([C@@H]1CCCN1)[C@@H](C)C(=O)O; Dil = CC[C@H](C)[C@H](NC)[C@@H](CC(=O)O)OC; 1Nal = N[C@@H](Cc1cccc2ccccc12)C(=O)O; X2 = O=C(CCCC(=O)[*:2])NCCC(=O)[*:1]; PABC = O=C(OCc1ccc(N[*:1])cc1)[*:2]; X1 = C[C@@H](N*)[C@@H](O)c1ccccc1; Hyp = O=C(O)[C@@H]1C[C@@H](O)CN1; hArg = N=C(N)NCCCC[C@H](N)C(=O)O; Cit = NC(=O)NCCC[C@H](N)C(=O)O; Pen = CC(C)(S)[C@H](N)C(=O)O; NMeV = CN[C@H](C(=O)O)C(C)C; Sar = CNCC(=O)O
# Key:
# [1] = Metabolic stability in hepatocytes, SD rats; assay type: in vitro ADME; conditions: Sprague-Dawley (SD), rat, hepatocytes (cryopreserved, suspension), 0.5×10^6 cells/mL
# Protocol: Test Example 7: Metabolic Stability of the Compounds of the Present Invention in Hepatocytes from Mice, Rats, Cynomolgus Macaques, and Humans
# To investigate the metabolic stability of the compounds of the present invention in hepatocytes from mice, rats, Cynomolgus macaques, and humans.
# Incubations were performed in 96-well plates using an external extraction method. Several 96-well sample precipitation plates, designated T0, T15, T30, T60, T90, TO-MC, T90-MC, and blank matrix, were prepared, respectively. The recovery culture medium and incubation culture medium were removed in advance and placed in a 37° C. water bath for preheating. […]
# At the end of the incubation at the corresponding time point, the incubation plates were removed, from which 25 μL of a compound mixture with the cells and a control compound mixture with the cells were removed and added to sample plates containing 125 μL of stop buffer, respectively. […] All samples were mixed uniformly and then analyzed by the LC-MS/MS method.
# The concentration of the compound to be tested and the concentration of the control in the sample were semi-quantitatively determined by the liquid chromatography-tandem mass spectrometry (LC-MS/MS) method without a standard curve and quality control sample. […]
# MDA-MB-468 cells = assay: In vitro anti-proliferative activity, CellTiter-Glo, MDA-MB-468; assay type: cell-based, Human; conditions: MDA-MB-468, 72 h
# Protocol: (§1) Test Example 2: In Vitro Anti-Proliferative Activity of the Compounds of the Present Invention on Nci-H292 and Mda-Mb-468 Cells
# (§2) To investigate the effect of the compounds of the present invention on inhibiting cell proliferation by detecting the effect of the compounds on cell activity in vitro in tumor cell lines MDA-MB-468 and NCI-H292.
# (§3) The tumor cell lines were cultured in a 37° C., no CO2 incubator and a 37° C., 5% CO2 incubator according to the culture conditions shown in Table 8, respectively. The cells were periodically passaged, and cells in a logarithmic growth phase were taken for plating.
# (§4) Cells in a logarithmic growth phase were harvested and centrifuged at 1000 rpm for 3 min at room temperature. The supernatant was discarded, and the cells were resuspended in 5 mL of a culture medium. Then, 20 μL of the cell suspension was pipetted and mixed with trypan blue at 1:1 for staining for 3 min to detect cell viability and to count viable cells. The cell density was adjusted to 3000 cells/well. Then, 90 μL of the cell suspension was added to each culture plate well, and a cell-free culture medium was added to blank control wells. The culture plate was incubated overnight in a 37° C., no CO2, and 100% relative humidity incubator and a 37° C., 5% CO2, and 100% relative humidity incubator, respectively.
# (§5) Preparation of a 400× compound stock plate: The compound to be tested was gradient diluted with DMSO from the highest to the lowest concentration.
# (§6) Preparation of a 10× compound working solution: 78 μL of a cell culture medium was added to a V-bottomed 96-well plate, and 2 μL of the compound solution of each concentration was pipetted from the 400× compound stock plate into the cell culture medium in the 96-well plate. Then, 2 μL of DMSO was added to vehicle control and blank control. […]
# (§7) The detection was performed according to the instructions of the Promega CellTiter-Glo Luminescent Cell Viability Assay kit (Promega-G7573). The luminescence signal was detected on the En Vision® Multi-mode Plate Reader (En Vision 2104-10). […]
# [2] = Stability in plasma, Cynomolgus macaques; assay type: in vitro ADME; conditions: cynomolgus macaque, 37° C.
# Protocol: Test Example 9: Stability Analysis of the Compounds of the Present Invention in Plasma from Different Species
# To test the stability of the compounds of the present invention in plasma from SD rats, Cynomolgus macaques, and humans.
# The corresponding incubation plates, including T0, T10, T30, T60, T120, and T240 incubation plates, were added with a 2 μL working solution of the compound to be tested (100 μM). Three parallel wells were prepared for each sample. Then, 98 μL of blank plasma from SD rats, Cynomolgus macaques, and humans was added to the corresponding incubation plates to which the working solution had been added. All samples were incubated in a 37° C. water bath. […] At the end of each incubation time point, the corresponding incubation plate was removed, added with stop buffer, precipitated, and centrifuged for 20 minutes. Then, 150 μL of the supernatant was analyzed by the LC-MS/MS method. The concentration of the compound to be tested in the sample was semi-quantitatively determined by the liquid chromatography-tandem mass spectrometry (LC-MS/MS) method.
# NCI-H292 cells = assay: In vitro anti-proliferative activity, CellTiter-Glo, NCI-H292; assay type: cell-based, Human; conditions: NCI-H292, 72 h
# Protocol: as §1, §2, §3, §4, §5, §6, §7
structure (smiles),measurement,setting,value
CC[C@H](C)[C@@H]([C@@H](CC(=O)N1CCC[C@H]1[C@H](OC)[C@@H](C)C(=O)N[C@H](C)[C@@H](O)c1ccccc1)OC)N(C)C(=O)[C@@H](NC(=O)[C@H](C(C)C)N(C)C(=O)OCc1ccc(NC(=O)[C@H](CCCNC(N)=O)NC(=O)[C@@H](NC(=O)CCCC(=O)NCCC(=O)N(C)CC(=O)N(C)CC(=O)N(C)CC(=O)N(C)CC(=O)N(C)CC(=O)N(C)CC(=O)N(C)CC(=O)N(C)CC(=O)N(C)CC(=O)N(C)CC(=O)N[C@H]2CCCCNC(=O)C[C@@H](C(=O)N[C@H]3CSCCC(=O)N4CN5CN(C4)C(=O)CCSC(C)(C)[C@H](NC(=O)[C@@H](CC(=O)O)NC(=O)[C@H](Cc4cccc6ccccc46)NC(=O)[C@@H]4CCCN4C3=O)C(=O)N[C@@H](CCSC)C(=O)N[C@@H](CCCCNC(=N)N)C(=O)N[C@@H](CC(=O)O)C(=O)N[C@@H](Cc3c[nH]c4ccccc34)C(=O)N[C@@H](CO)C(=O)N[C@@H]([C@@H](C)O)C(=O)N3CCC[C@H]3C(=O)N3C[C@H](O)C[C@H]3C(=O)N[C@@H](Cc3c[nH]c4ccccc34)C(=O)N[C@H](C(N)=O)CSCCC5=O)NC(=O)CN(C)C2=O)C(C)C)cc1)C(C)C [Acetate salt of PDC_2] (I: [Sar][Sar][Sar][Sar][Sar][Sar][Sar][Sar][Sar][Sar]K[Sar]DCP[1Nal][dD][Pen]M[hArg]DWSTP[Hyp]WC-NH2 / II: V[Cit][PABC][NMeV]V[Dil][Dolaproine]-X1; lactam I:11-I:13; linker I:14-I:18-I:28 via TATA; linker I:N-II:N via X2),half-life at 1 μM,[1],> 3.61 h
same,CLint scaled at 1 μM,[1]; read-out: CLint (liver),< 29.9 mL/min/kg
same,IC50,MDA-MB-468 cells,32.3 nM
same,Maximum inhibition rate,MDA-MB-468 cells,86.28%
same,Minimum inhibition rate,MDA-MB-468 cells,−10.28%
same,half-life at 2 μM,[2],> 9.63 h
same,IC50,NCI-H292 cells,42.1 nM
same,Maximum inhibition rate,NCI-H292 cells,81.32%
same,Minimum inhibition rate,NCI-H292 cells,1.55%
